Measurements published in patent publication US20220305012A1, “L[…] TREATING SLEEP ISSUES” (EISAI R&D MANAGEMENT CO., LTD., priority 2019, published 2022).

What was measured:
Assay type in all cases: in vivo, human
[1] = tested on: Subjects Having Insomnia Disorder; assay: Example 1: Morning Sleepiness rating (scale 1 to 9); details: for Morning Sleepiness score, Mean (SD): Baseline; for Morning Sleepiness score, Treatment difference (vs placebo): change from baseline at Month 6
Text: (§1) In some embodiments, sleep diaries were used to assess sleep parameters reported by subjects (i.e., subjective assessments) including subjective sleep onset latency (sSOL), subjective sleep efficiency (sSE), subjective WASO (sWASO), and subjective total sleep time (sTST). Subjects were instructed to complete the Sleep Diary developed based on the consensus Sleep Diary as described in Carney et al., “The consensus sleep diary: standardizing prospective sleep self-monitoring,” Sleep 2012; 35(2):287-302. In some embodiments, the Sleep Diary was used to assess the subject's global perception of quality of sleep on the previous night with the following question: “How would you rate the quality of your sleep last night?” Subjects rated the quality of their sleep on a scale from 1 to 9, with 1 being extremely poor and 9 being extremely good. In some embodiments, the Sleep Diary was used to assess subjective ratings of morning sleepiness with the following question: “How alert/sleepy do you feel this morning?” Subjects rated their sleepiness/alertness level on a Likert scale from 1 to 9, with 1 being extremely sleepy and 9 being extremely alert.
(§2) Treatment period 1 began with the first dose of randomized study medication (placebo, 5 mg of lemborexant, or 10 mg of lemborexant). Subjects completed sleep diaries daily in the morning, within one hour of waketime. The subjects were assessed by a clinician one month, two months, three months, and six months after initiation of Treatment period 1.

[2] = tested on: Subjects Having Insomnia Disorder; assay: Example 3: proportion of subjects whose ISI Total Score decreased by 7 or more points (pooled); details: for percentage of subjects whose ISI Total Score decreased by 7 or more points: end of month 1, pooled Examples 1 and 2; for Total Insomnia Severity Index Score Decreased by ≥7 Points, Difference of proportion vs. Placebo / Total Insomnia Severity Index Score Decreased from Baseline to Month 1 by ≥7 Points, Responder No, n (%) / Total Insomnia Severity Index Score Decreased from Baseline to Month 1 by ≥7 Points, Responder Yes, n (%): Month 1
Description: (§3) The data collected in studies described in Example 1 and Example 2 were pooled and the response of each subject was analyzed.
(§4) Table 32 provides the summary and analysis of responders, defined as those subjects whose Total ISI Score decreased at the end of month 1 by 7 or more points compared to baseline. Table 33 provides the summary and analysis of responders, defined as those subjects whose ISI Total Score decreased compared to baseline and was less than 10 at month 1.

[3] = tested on: Subjects Having Insomnia Disorder; assay: Example 2: minutes asleep in sleep stages (N1, N2, N3, REM, non-REM); details: both doses (FIG. 15)
Description: FIG. 13A, FIG. 13B, and FIG. 13C show the change from baseline (least squares mean) in the minutes asleep during Stage N1, Stage N2, and Stage N3 sleep, respectively, at Nights 1/2 and Nights 29/30 in patients treated with placebo, 6.25 mg of zolpidem, 5 mg of lemborexant, or 10 mg of lemborexant.

[4] = tested on: Subjects Having Insomnia Disorder; assay: Example 2: duration of long awakenings; details: both doses; relative to placebo, compared with zolpidem ER (FIG. 12)
[5] = tested on: Subjects Having Insomnia Disorder; assay: Example 3: proportion of subjects whose ISI Total Score decreased and was <10 (pooled); details: for percentage of subjects whose ISI Total Score decreased at month 1 and was less than 10: end of month 1, pooled Examples 1 and 2; for Responder No: subjects whose Insomnia Severity Index Total Score decreased from Baseline to Month 1 and was <10 / Responder Yes: subjects whose Insomnia Severity Index Total Score decreased from Baseline to Month 1 and was <10: Full Analysis Set, Examples 1 and 2; for Responder No: subjects whose Insomnia Severity Index Total Score decreased from Baseline to Month 1 and was <10 / Responder Yes: subjects whose Insomnia Severity Index Total Score decreased from Baseline to Month 1 and was <10 / Difference of proportion of responders vs. Placebo: Month 1; for Difference of proportion of responders vs. Placebo: ISI Total Score decreased and <10
Description: as §3, §4

[6] = tested on: Subjects Having Insomnia Disorder; assay: Example 1: Quality of Sleep rating (scale 1 to 9); details: for Quality of Sleep score, Mean (SD): Baseline; for Quality of Sleep score, Treatment difference (vs placebo): change from baseline at Month 6
Text: as §1, §2

[7] = tested on: Subjects Having Insomnia Disorder; assay: Example 3: proportion of sWASO responders (pooled Examples 1 and 2)
Description: as §3

[8] = First 7 Days, Lemborexant 10 mg

`Cc1ncc(OC[C@@]2(c3cccc(F)c3)C[C@H]2C(=O)Nc2ccc(F)cn2)c(C)n1` [Lemborexant, (1R,2S)-2-(((2,4-dimethylpyrimidin-5-yl)oxy)methyl)-2-(3-fluorophenyl)-N-(5-fluoropyridin-2-yl)cyclopropanecarboxamide] was tested, and the “Morning Sleepiness score, Mean (SD)” value ([1]; 5 mg) was 3.93 (1.35), the “Morning Sleepiness score, Treatment difference (vs placebo)” value ([1]; 5 mg) was 0.15 and the “Morning Sleepiness score, Mean (SD)” value ([1]; 10 mg) was 3.93 (1.32). For the same compound, the “Morning Sleepiness score, Treatment difference (vs placebo)” value ([1]; 10 mg) was 0.26, the “morning sleepiness compared with placebo” value ([1]; at 6 months (Table 8)) was “significantly improved” and the “percentage of subjects whose ISI Total Score decreased by 7 or more points” value ([2]; 5 mg) was 47.3%. For the same compound, the “percentage of subjects whose ISI Total Score decreased by 7 or more points” value ([2]; 10 mg) was 47.8%, the “Total Insomnia Severity Index Score Decreased by ≥7 Points, Difference of proportion vs. Placebo” value ([2]; Lemborexant 5 mg) was 13.12 and the “Total Insomnia Severity Index Score Decreased from Baseline to Month 1 by ≥7 Points, Responder No, n (%)” value ([2]; Lemborexant 5 mg) was 283 (48.6) n (%). For the same compound, the “Total Insomnia Severity Index Score Decreased from Baseline to Month 1 by ≥7 Points, Responder Yes, n (%)” value ([2]; Lemborexant 5 mg) was 275 (47.3) n (%), the “Total Insomnia Severity Index Score Decreased by ≥7 Points, Difference of proportion vs. Placebo” value ([2]; Lemborexant 10 mg) was 13.61 and the “Total Insomnia Severity Index Score Decreased from Baseline to Month 1 by ≥7 Points, Responder No, n (%)” value ([2]; Lemborexant 10 mg) was 261 (44.7) n (%). The “Total Insomnia Severity Index Score Decreased from Baseline to Month 1 by ≥7 Points, Responder Yes, n (%)” value ([2]; Lemborexant 10 mg) was 279 (47.8) n (%), the “difference of proportion of responders (ISI Total Score decreased by 7 or more points) versus placebo” value ([2]; both doses, month 1 (Table 32)) was “statistically significant” and the non-REM sleep [3] was “greater increase in non-REM sleep compared to treatment with placebo and zolpidem ER”. For the same compound, the “length of long awakenings” value [4] was “greater reduction in the length of long awakenings than treatment with zolpidem ER”, the “percentage of subjects whose ISI Total Score decreased at month 1 and was less than 10” value ([5]; 5 mg) was 33.0% and the “percentage of subjects whose ISI Total Score decreased at month 1 and was less than 10” value ([5]; 10 mg) was 33.4%. For the same compound, the “Responder No: subjects whose Insomnia Severity Index Total Score decreased from Baseline to Month 1 and was <10” value ([5]; Lemborexant 5 mg (N = 582)) was 366 (62.9) n (%), the “Responder Yes: subjects whose Insomnia Severity Index Total Score decreased from Baseline to Month 1 and was <10” value ([5]; Lemborexant 5 mg (N = 582)) was 192 (33.0) n (%) and the “Difference of proportion of responders vs. Placebo” value ([5]; Lemborexant 5 mg vs placebo) was 12.44. For the same compound, the “Responder No: subjects whose Insomnia Severity Index Total Score decreased from Baseline to Month 1 and was <10” value ([5]; Lemborexant 10 mg (N = 584)) was 345 (59.1) n (%), the “Responder Yes: subjects whose Insomnia Severity Index Total Score decreased from Baseline to Month 1 and was <10” value ([5]; Lemborexant 10 mg (N = 584)) was 195 (33.4) n (%) and the “Difference of proportion of responders vs. Placebo” value ([5]; Lemborexant 10 mg vs placebo) was 12.71. The “difference of proportion of responders (ISI Total Score decreased and less than 10) versus placebo” value ([5]; both doses, month 1 (Table 33)) was “statistically significant”, the “Quality of Sleep score, Mean (SD)” value ([6]; 5 mg) was 4.0 (1.3) and the “Quality of Sleep score, Treatment difference (vs placebo)” value ([6]; 5 mg) was 0.28. The “Quality of Sleep score, Mean (SD)” value ([6]; 10 mg) was 4.0 (1.4), the “Quality of Sleep score, Treatment difference (vs placebo)” value ([6]; 10 mg) was 0.32 and the “quality of sleep compared with placebo” value ([6]; at 6 months (Table 8)) was “significantly improved”. For the same compound, the “Subjective Wake After Sleep Onset Responder, No, n (%)” value ([7]; First 7 Days, Lemborexant 5 mg) was 420 (81.1) n (%), the “Subjective Wake After Sleep Onset Responder, Yes, n (%)” value ([7]; First 7 Days, Lemborexant 5 mg) was 91 (17.6) n (%) and the “Subjective Wake After Sleep Onset Responders, Difference of proportion vs. Placebo” value ([7]; First 7 Days, Lemborexant 5 mg) was 6.15. The “Subjective Wake After Sleep Onset Responder, No, n (%)” value [7, 8] was 411 (79.5) n (%), the “Subjective Wake After Sleep Onset Responder, Yes, n (%)” value [7, 8] was 100 (19.3) n (%) and the “Subjective Wake After Sleep Onset Responders, Difference of proportion vs. Placebo” value [7, 8] was 7.84. For the same compound, the “Subjective Wake After Sleep Onset Responder, No, n (%)” value ([7]; Month 1, Lemborexant 5 mg) was 372 (71.8) n (%).
